Measured values reported in patent publication US6869957B1, “Non-peptide tachykinin receptor antagonists” (Eli Lilly and Company, priority 1993, dated 2005).

Tests used:
[1] = biological target: T1, human NK-2 receptor (Homo sapiens, UniProt P21452); experiment: NK-2 Receptor Binding Assay ([125I]iodohistidyl-neurokinin A, CHO-hNK-2R membranes); details: for IC50: inhibits fifty percent of binding of [125I]iodohistidyl-neurokinin A to CHO-hNK-2R membranes
T1 construct: expressed in transfected cells; host or cells: CHO-hNK-2R cells (CHO-derived), membrane preparation
T1 sequence (P21452 1-398): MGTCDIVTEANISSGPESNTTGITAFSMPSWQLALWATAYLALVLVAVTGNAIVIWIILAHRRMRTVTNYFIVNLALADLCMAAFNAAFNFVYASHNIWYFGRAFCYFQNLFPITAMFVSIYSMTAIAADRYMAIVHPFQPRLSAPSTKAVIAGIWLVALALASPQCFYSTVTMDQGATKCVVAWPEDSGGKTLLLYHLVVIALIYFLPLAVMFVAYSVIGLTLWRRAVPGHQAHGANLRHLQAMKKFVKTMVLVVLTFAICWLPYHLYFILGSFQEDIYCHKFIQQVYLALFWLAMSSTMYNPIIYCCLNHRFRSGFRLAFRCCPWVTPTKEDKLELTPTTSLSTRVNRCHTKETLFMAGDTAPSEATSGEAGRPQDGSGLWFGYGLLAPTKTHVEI
Description: The biological activity of the compounds of the present invention was evaluated employing an initial screening assay which rapidly and accurately measured the binding of the tested compound to known NK-1 and NK-2 receptor sites. Assays useful for evaluating tachykinin receptor antagonists are well known in the art. See. e.g., J. Jukic, et al., Life Sciences, 49:1463-1469 (1991); N. Kucharczyk, et al., Journal of Medicinal Chemistry, 36:1654-1661 (1993); N. Rouissi, et al., Biochemical and Biophysical Research Communications, 176:894-901 (1991).
NK-2 Receptor Binding Assay
The CHO-hNK-2R cells, a CHO-derived cell line transformed with the human NK-2 receptor, expressing about 400,000 such receptors per cell, were grown in 75 cm^2 flasks or roller bottles in minimal essential medium (alpha modification) with 10% fetal bovine serum. The gene sequence of the human NK-2 receptor is given in N. P. Gerard, et al., Journal of Biological Chemistry, 265:20455-20462 (1990).
For preparation of membranes, 30 confluent roller bottle cultures were dissociated by washing each roller bottle with 10 ml of Dulbecco's phosphate buffered saline (PBS) without calcium and magnesium, followed by addition of 10 ml of enzyme-free cell dissociation solution (PBS-based, from Specialty Media, Inc.). After an additional 15 minutes, the dissociated cells were pooled and centrifuged at 1,000 RPM for 10 minutes in a clinical centrifuge. Membranes were prepared by homogenization of the cell pellets in 300 ml 50 mM Tris buffer, pH 7.4 with a Tekma® homogenizer for 10-15 seconds, followed by centrifugation at 12,000 RPM (20,000×g) for 30 minutes using a Beckman JA-14® rotor. The pellets were washed once using the above procedure. and the final pellets were resuspended in 100-120 ml 50 mM Tris buffer, pH 7.4, and 4 ml aliquots stored frozen at −70° C. The protein concentration of this preparation was 2 mg/ml.
For the receptor binding assay, one 4-ml aliquot of the CHO-hNK-2R membrane preparation was suspended in 40 ml of assay buffer containing 50 mM Tris, pH 7.4, 3 mM manganese chloride, 0.02% bovine serum albumin (BSA) and 4 μg/ml chymostatin. A 200 μl volume of the homogenate (40 μg protein) was used per sample. The radioactive ligand was [^125I]iodohistidyl-neurokinin A (New England Nuclear, NEX-252), 2200 Ci/mmol. The ligand was prepared in assay buffer at 20 nCi per 100 μl; the final concentration in the assay was 20 pM. Non-specific binding was determined using 1 μM eledoisin. Ten concentrations of eledoisin from 0.1 to 1000 nM were used for a standard concentration-response curve.
All samples and standards were added to the incubation in 10 μl dimethylsulfoxide (DMSO) for screening (single dose) or in 5 μl DMSO for IC50 determinations. The order of additions for incubation was 190 or 195 μl assay buffer, 200 μl homogenate, 10 or 5 μl sample in DMSO, 100 μl radioactive ligand. The samples were incubated 1 hr at room temperature and then filtered on a 48 well Brandel cell harvester through GF/B filters which had been presoaked for two hours in 50 mM Tris buffer, pH 7.7, containing 0.5% BSA. The filter was washed 3 times with approximately 3 ml of cold 50 mm Tris buffer, pH 7.7. The filter circles were then punched into 12×75 mm polystyrene tubes and counted in a gamma counter.

[2] = biological target: T2, NK-1 receptor (Homo sapiens, UniProt P25103); experiment: NK-1 Receptor Binding Assay (125I-labeled substance P, IM9 cells); details: for IC50: inhibits fifty percent of binding of 125I-substance P to IM9 cells
T2 construct: endogenous in cells; host or cells: IM9 cells (human cell line), whole cells
T2 sequence (P25103 whole entry): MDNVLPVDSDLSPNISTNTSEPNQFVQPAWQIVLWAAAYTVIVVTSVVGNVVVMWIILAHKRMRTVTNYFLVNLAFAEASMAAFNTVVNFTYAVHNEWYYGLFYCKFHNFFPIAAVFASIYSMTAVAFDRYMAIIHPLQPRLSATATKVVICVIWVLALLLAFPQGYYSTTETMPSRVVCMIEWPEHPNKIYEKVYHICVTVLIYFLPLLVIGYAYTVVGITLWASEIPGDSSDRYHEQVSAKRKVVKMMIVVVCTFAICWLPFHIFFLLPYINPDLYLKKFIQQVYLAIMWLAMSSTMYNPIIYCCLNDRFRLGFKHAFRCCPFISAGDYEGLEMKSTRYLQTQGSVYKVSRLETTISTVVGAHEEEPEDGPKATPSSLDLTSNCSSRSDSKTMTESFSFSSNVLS
Description: The biological activity of the compounds of the present invention was evaluated employing an initial screening assay which rapidly and accurately measured the binding of the tested compound to known NK-1 and NK-2 receptor sites. Assays useful for evaluating tachykinin receptor antagonists are well known in the art.
NK-1 Receptor Binding Assay
Radioreceptor binding assays were performed using a derivative of a previously published protocol.
The IM9 cell line is a well-characterized and readily available human cell line.
The reaction was terminated by filtration through a glass fiber filter harvesting system using filters previously soaked for 20 minutes in 0.1% polyethylenimine. Specific binding of labeled substance P was determined in the presence of 20 nM unlabeled ligand.

Row | SMILES | IC50 [2] [nM] | other results
1 | COc1ccccc1CN(CC(Cc1c[nH]c2ccccc12)NC(=O)CN1CCN(c2ccccc2)CC1)C(C)=O (racemic) [Example 17] | – | IC50 [1]: 1600 nM
2 | COc1ccccc1CN(CC(Cc1c[nH]c2ccccc12)NC(=O)CN1CCC(N2CCCCC2)CC1)C(C)=O (racemic) [Example 50] | – | IC50 [1]: 3400 nM
3 | O=C(CN1CCN(c2ccccc2)CC1)NC(CNCc1ccccc1Cl)Cc1c[nH]c2ccccc12 (centres unmarked) [Example 2, 1-[N-(2-chlorobenzyl)amino]-3-(1H-indol-3-yl)-2-[N-(2-((4-phenyl)piperazin-1-yl)acetyl)amino]propane] | 36 | –
4 | COc1ccccc1CNCC(Cc1c[nH]c2ccccc12)NC(=O)CN1CCN(c2ccccc2)CC1 (centres unmarked) [Example 6] | – | NK-1 percent inhibition of binding ([2]; @ 1 μM): 62% @
5 | COc1cccc(CNCC(Cc2c[nH]c3ccccc23)NC(=O)CN2CCN(c3ccccc3)CC2)c1 (centres unmarked) [Example 7] | 230 | –
6 | CC(=O)N(Cc1ccccc1Cl)CC(Cc1c[nH]c2ccccc12)NC(=O)CN1CCN(c2ccccc2)CC1 (centres unmarked) [Example 13] | 1.3 | –
7 | CC(=O)N(Cc1ccccc1C(F)(F)F)CC(Cc1c[nH]c2ccccc12)NC(=O)CN1CCN(c2ccccc2)CC1 (centres unmarked) [Example 15] | 2.1 | –
8 | CC(=O)N(Cc1ccccc1Cl)CC(Cc1c[nH]c2ccccc12)NC(=O)CN1CCC(N2CCCCC2)CC1 (centres unmarked) [Example 48] | 0.24 | –
9 | COc1ccccc1CN(CC(Cc1c[nH]c2ccccc12)NC(=O)CSc1ccccc1)C(C)=O (centres unmarked) [Example 57] | 150 | –
10 | COc1ccccc1CN(CC(Cc1c[nH]c2ccccc12)NC(=O)CN1CCN(C(C)C)CC1)C(C)=O (centres unmarked) [Example 73] | 0.99 | –
11 | CC(=O)N(Cc1ccccc1Cl)CC(Cc1c[nH]c2ccccc12)NC(=O)CN1CCN(C2CCCCC2)CC1 (centres unmarked) [Example 87] | 0.77 | –
12 | COc1ccccc1CN(CC(Cc1c[nH]c2ccccc12)NC(=O)CCc1ccccc1)C(C)=O (centres unmarked) [Example 90] | 65 | –
13 | COc1ccccc1CN(C[C@H](Cc1c[nH]c2ccccc12)NC(=O)OCc1ccccc1)C(C)=O [Example 93] | – | NK-1 percent inhibition of binding ([2]; @ 1 μM): 16% @
14 | COc1ccccc1CN(C[C@@H](Cc1c[nH]c2ccccc12)NC(=O)CCC(=O)c1ccccc1)C(C)=O [Example 96] | 34.4 | –
15 | COc1ccccc1CN(C[C@H](Cc1c[nH]c2ccccc12)NC(=O)CCC(=O)c1ccccc1)C(C)=O [Example 97] | 1300 | –
16 | COc1ccccc1CN(CC(Cc1c[nH]c2ccc(OCc3ccccc3)cc12)NC(=O)CN1CCN(c2ccccc2)CC1)C(C)=O (centres unmarked) [Example 118] | 310 | –
17 | COc1ccc2[nH]cc(CC(CNCc3ccccc3OC)NC(=O)CN3CCC(N4CCCCC4)CC3)c2c1 (centres unmarked) [Example 121] | 850 | –
18 | COc1ccccc1CNCC(Cc1c[nH]c2ccc(OCc3ccccc3)cc12)NC(=O)CN1CCC(N2CCCCC2)CC1 (centres unmarked) [Example 122] | 550 | –
19 | COc1ccccc1CN(CC(C)(Cc1c[nH]c2ccccc12)NC(=O)CBr)C(=O)OC(C)(C)C (centres unmarked) [Example 134] | – | NK-1 percent inhibition of binding ([2]; @ 1 μM): 14% @
20 | COc1ccccc1CN(CC(Cc1csc2ccccc12)NC(=O)CN1CCN(c2ccccc2)CC1)C(C)=O (centres unmarked) [Example 143] | 7.9 | –
21 | COc1ccccc1CN(CC(Cc1csc2ccccc12)NC(=O)CN1CCC(N2CCCCC2)CC1)C(C)=O (centres unmarked) [Example 149] | 1.2 | –
22 | NCC(Cc1c[nH]c2ccccc12)NC(=O)CN1CCN(c2ccccc2)CC1 (centres unmarked) [Example 150, 1-amino-3-(1H-indol-3-yl)-2-[N-(2-((4-phenyl)piperazin-1-yl)acetyl)amino]propane] | – | inhibition at 1 µM ([2]; @ 1 μM, read-out: NK-1 percent inhibition of binding): 45%
23 | O=C(NCC(Cc1ccccc1)NC(=O)c1ccccc1)c1ccccc1 (centres unmarked) [Example 163] | – | NK-2 percent inhibition of binding ([1]; @ 10 μM): 44% @
24 | NCC(NC(c1ccccc1)(c1ccccc1)c1ccccc1)c1ccc(Cl)c(Cl)c1 (centres unmarked) [Example 172] | – | NK-1 percent inhibition of binding ([2]; @ 5 μM): 46% @

The next lines start with results.

Row | IC50 [2] [nM] | SMILES | other results
25 | 29 | O=C(CN1CCN(c2ccccc2)CC1)NC(CNCc1ccccc1C(F)(F)F)Cc1c[nH]c2ccccc12 (centres unmarked) [Example 3] | –
26 | 62 | COc1ccccc1CNC[C@@H](Cc1c[nH]c2ccccc12)NC(=O)CN1CCN(c2ccccc2)CC1 [Example 5] | –
27 | 130 | COc1ccc(CNCC(Cc2c[nH]c3ccccc23)NC(=O)CN2CCN(c3ccccc3)CC2)cc1 (centres unmarked) [Example 8] | –
28 | 139 | CCCCN(CC(Cc1c[nH]c2ccccc12)NC(=O)CN1CCN(c2ccccc2)CC1)C(C)=O (centres unmarked) [Example 39] | –
29 | 135 | CC(=O)N(Cc1ccccc1Cl)CC(Cc1c[nH]c2ccccc12)NC(=O)CN1CCC(N2CCCCC2)CC1 (centres unmarked) [Example 49] | –
30 | 71 | COc1ccccc1CN(CC(Cc1c[nH]c2ccccc12)NC(=O)CBr)C(C)=O (centres unmarked) [Example 55] | –
31 | 0.36 | CC(=O)N(Cc1ccccc1Cl)CC(Cc1c[nH]c2ccccc12)NC(=O)CN1CCN(C(C)C)CC1 (centres unmarked) [Example 86] | –
32 | 3000 | COc1ccccc1CN(CC(Cc1c[nH]c2ccccc12)NC(=O)CCc1ccccc1)C(C)=O (centres unmarked) [Example 91] | –
33 | 97.2 | COc1ccccc1CN(CC(Cc1c[nH]c2ccccc12)NC(=O)OCc1ccccc1)C(C)=O (centres unmarked) [Example 92] | –
34 | 270 | COc1ccccc1CNCC(Cc1c[nH]c2ccc(OCc3ccccc3)cc12)NC(=O)CN1CCN(c2ccccc2)CC1 (centres unmarked) [Example 112] | –
35 | 15.4 | COc1ccccc1CN(CC(Cc1c[nH]c2c(C)cccc12)NC(=O)CN1CCN(c2ccccc2)CC1)C(C)=O (centres unmarked) [Example 115] | –
36 | 33 | COc1ccc2[nH]cc(CC(CN(Cc3ccccc3OC)C(C)=O)NC(=O)CN3CCN(c4ccccc4)CC3)c2c1 (centres unmarked) [Example 117] | –
37 | 2500 | COc1ccccc1CNCC(Cc1c[nH]c2ccc(Br)cc12)NC(=O)CN1CCC(N2CCCCC2)CC1 (centres unmarked) [Example 120] | –
38 | 1.1 | COc1ccccc1CN(CC(Cc1c[nH]c2c(C)cccc12)NC(=O)CN1CCC(N2CCCCC2)CC1)C(C)=O (centres unmarked) [Example 128] | –
39 | 8.5 | COc1ccccc1CN(CC(Cc1c[nH]c2ccc(Br)cc12)NC(=O)CN1CCC(N2CCCCC2)CC1)C(C)=O (centres unmarked) [Example 129] | –
40 | 19 | COc1ccc2[nH]cc(CC(CN(Cc3ccccc3OC)C(C)=O)NC(=O)CN3CCC(N4CCCCC4)CC3)c2c1 (centres unmarked) [Example 130] | –
41 | 67 | COc1ccccc1CN(CC(Cc1c[nH]c2ccc(OCc3ccccc3)cc12)NC(=O)CN1CCC(N2CCCCC2)CC1)C(C)=O (centres unmarked) [Example 131] | –
42 | 0.7 | COc1ccccc1CN(CC(Cc1c[nH]c2cc(F)ccc12)NC(=O)CN1CCC(N2CCCCC2)CC1)C(C)=O (centres unmarked) [Example 131a] | –
43 | 4.2 | COc1ccccc1CN(CC(C)(Cc1c[nH]c2ccccc12)NC(=O)CN1CCC(N2CCCCC2)CC1)C(C)=O (centres unmarked) [Example 132] | –
44 | 11.6 | COc1ccccc1CN(CC(C)(Cc1c[nH]c2ccccc12)NC(=O)CN1CCN(c2ccccc2)CC1)C(C)=O (centres unmarked) [Example 133] | –
